Reference: patent publication US10189809B2, “SGC stimulators” (Ironwood Pharmaceuticals, Inc., priority 2010, dated 2019)
Where two headings read alike, the source gives them in different places.

What was measured:
[1] = target: T1, soluble guanylate cyclase (sGC) (Homo sapiens (Human), UniProt Q02108+Q02153); assay: sGC-HEK-cGMP assay run in the absence of SNP (HEK WC assay); assay type: cell-based; conditions: compound at 30 μM, absence of SNP
Description: (§1) Human embryonic kidney cells (HEK293), endogenously expressing soluble guanylate cyclase (sGC), were used to evaluate the activity of test compounds. Compounds stimulating the sGC receptor should cause an increase in the intracellular concentration of cGMP. HEK 293 cells were seeded in Dulbecco's Modification of Eagle's Medium supplemented with fetal bovine serum (10% final) and L-glutamine (2 mM final) in a 200 μL volume at a density of 1×10^5 cells/well in a poly-D-lysine coated 96 well flat bottom plate and grown overnight at 37° C. Medium was aspirated and cells were washed with 1× Hank's Buffered Saline Salt Solution (200 μL). Cells were then incubated for 15 minutes at 37° C. with 0.5 mM 3-isobutyl-1-methylxanthine (200 μL). Test article was then added to the assay mixture (2 μL) and incubated at 37° C. for 10 minutes. After the 10 minute incubation, the assay mixture was aspirated and 0.1M HCl (200 μL) was added to the cells. The plate was incubated at 4° C. for 30 minutes in the 0.1M HCl to stop the reaction and lysed the cells. The plates were then centrifuged at 1,200 g for 5 minutes at room temperature. Supernatants were collected and transferred to a new flat bottom 96 well plate for analysis. Vehicle controls were carried out using DMSO (1%). A known sGC stimulator, BAY 41-2272, was used as the positive control. Samples were diluted with an equal volume of 1 M Ammonium Acetate (pH 7) to neutralize samples for better chromatography. A 2× cGMP standard curve was prepared in 0.1 M HCl and then diluted with an equal volume of 1 M Ammonium Acetate, with the following final concentrations in nM: 1024, 512, 256, 128, 64, 32, 16, 8, 4, 2, 1. cGMP concentrations were determined from each sample using the LC/MS conditions (Table 2 below) and calculated standard curve. EC50 values were calculated from concentration-response curves generated with GraphPad Prism Software.

[2] = target: T1, soluble guanylate cyclase (sGC); assay: sGC-HEK-cGMP assay run with SNP incubation (HEK WC assay); assay type: cell-based; conditions: for HEK WC Assay (fold increase at 30 μM in the presence of 10 μM SNP): compound at 30 μM; for Emax at 10 µM: read-out: HEK WC Assay (% Emax at 10 μM/with 10 uM SNP); for Emax at 30 µM: read-out: HEK WC Assay (% Emax at 30 μM/with 10 uM SNP); for EC50: in the presence of 10 uM SNP
Description: as §1, with “article and sodium nitroprusside were” for “article was”, “(2 μL each)” for “(2 μL)”, “(1%). […]” for “(1%). A known sGC stimulator, BAY 41-2272, was used as the positive control.”, “chromatography. […]” for “chromatography. A 2× cGMP standard curve was prepared in 0.1 M HCl and then diluted with an equal volume of 1 M Ammonium Acetate, with the following final concentrations in nM: 1024, 512, 256, 128, 64, 32, 16, 8, 4, 2, 1. cGMP concentrations were determined from each sample using the LC/MS conditions (Table 2 below) and calculated standard curve.”

[3] = read-out: HEK WC Assay (% Emax at 10 μM with 10 uM SNP)
[4] = read-out: HEK WC Assay (% Emax at 30 μM with 10 uM SNP)
[5] = read-out: HEK WC Assay (% Emax at 1 μM with 10 uM SNP)

T1 sequence (Q02153 whole entry): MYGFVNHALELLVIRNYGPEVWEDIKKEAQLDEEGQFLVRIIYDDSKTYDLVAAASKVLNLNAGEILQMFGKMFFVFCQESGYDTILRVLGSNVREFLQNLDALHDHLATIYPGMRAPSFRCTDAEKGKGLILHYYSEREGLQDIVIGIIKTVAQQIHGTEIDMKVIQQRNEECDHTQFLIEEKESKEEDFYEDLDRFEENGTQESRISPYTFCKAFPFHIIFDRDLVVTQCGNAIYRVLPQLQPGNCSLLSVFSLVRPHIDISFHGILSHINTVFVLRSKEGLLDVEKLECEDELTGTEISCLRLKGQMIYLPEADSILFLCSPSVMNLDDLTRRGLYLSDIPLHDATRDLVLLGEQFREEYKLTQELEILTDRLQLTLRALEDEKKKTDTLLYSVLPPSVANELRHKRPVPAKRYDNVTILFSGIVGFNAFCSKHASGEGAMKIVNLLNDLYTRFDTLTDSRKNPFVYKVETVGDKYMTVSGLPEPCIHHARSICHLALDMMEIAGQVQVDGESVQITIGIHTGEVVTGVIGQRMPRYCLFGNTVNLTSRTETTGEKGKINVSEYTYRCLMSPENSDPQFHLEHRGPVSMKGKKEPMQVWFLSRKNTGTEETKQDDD
T1 sequence (Q02108 whole entry): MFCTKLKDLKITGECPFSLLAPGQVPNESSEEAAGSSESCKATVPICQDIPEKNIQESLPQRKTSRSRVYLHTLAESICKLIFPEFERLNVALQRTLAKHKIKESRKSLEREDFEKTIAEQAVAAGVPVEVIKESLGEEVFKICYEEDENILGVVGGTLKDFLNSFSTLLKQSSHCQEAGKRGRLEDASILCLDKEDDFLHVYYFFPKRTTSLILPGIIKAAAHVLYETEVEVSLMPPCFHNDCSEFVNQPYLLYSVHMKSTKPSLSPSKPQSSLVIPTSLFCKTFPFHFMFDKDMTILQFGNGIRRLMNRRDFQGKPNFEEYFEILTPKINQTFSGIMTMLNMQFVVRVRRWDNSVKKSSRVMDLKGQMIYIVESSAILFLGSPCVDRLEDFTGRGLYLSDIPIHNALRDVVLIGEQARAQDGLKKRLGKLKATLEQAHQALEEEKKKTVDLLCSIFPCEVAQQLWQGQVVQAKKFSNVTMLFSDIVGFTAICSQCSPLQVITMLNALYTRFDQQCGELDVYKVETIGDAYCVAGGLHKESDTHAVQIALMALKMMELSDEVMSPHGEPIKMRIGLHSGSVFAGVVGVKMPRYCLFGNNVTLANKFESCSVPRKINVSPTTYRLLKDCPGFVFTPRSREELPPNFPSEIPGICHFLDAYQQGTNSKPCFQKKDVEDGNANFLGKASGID

Structure (SMILES) | HEK WC Assay (fold increase at 30 μM in the absence of SNP) [1] | HEK WC Assay (fold increase at 30 μM in the presence of 10 μM SNP) [2] | Emax [2, 3] [%] | Emax at 10 µM [2] [%] | Emax [2, 4] [%] | Emax at 30 µM [2] [%] | EC50 [2] [µM] | Emax [2, 5] [%]
CCOC(=O)c1cnc(-c2cc(-c3ccon3)n(Cc3ccccc3F)n2)nc1NCc1ccc(OC)cc1 [Compound I-134] | B (B = 1 to <2 fold increase) | B (B = 1 to <2 fold increase) | 0 to 10 | 20 to 40 | 0 to 10 | 40 to 60 |  | 
COc1ccc(CNc2nc(-c3cc(-c4ccon4)n(Cc4ccccc4F)n3)ncc2C(C)(C)O)cc1 [Compound I-135] | C (C = 2 to <5 fold increase) | D (D = 5 to <10 fold increase) | 10 to 20 | 0 to 10 | 10 to 20 | 0 to 10 |  | 
CC(=O)Nc1c(N)nc(-c2cc(-c3ccon3)n(Cc3ccccc3F)n2)nc1N [Compound I-141] | B (B = 1 to <2 fold increase) | C (C = 2 to <5 fold increase) | 0 to 10 |  | 0 to 10 |  |  | 
Nc1cnc(-c2cc(-c3ncco3)n(Cc3ccccc3F)n2)nc1N [Compound I-149] | C (C = 2 to <5 fold increase) | D (D = 5 to <10 fold increase) | 60 to 80 |  | 80 to 100 |  | 20 to 40 | 
Nc1cc(O)nc(-c2cc(-c3ccon3)n(Cc3ccccc3F)n2)n1 [Compound I-154] | B (B = 1 to <2 fold increase) | B (B = 1 to <2 fold increase) | 0 to 10 |  | 10 to 20 |  |  | 
O=C(Nc1cnc(-c2cc(-c3ncco3)n(Cc3ccccc3F)n2)nc1O)c1ccccc1 [Compound I-159] | B (B = 1 to <2 fold increase) | D (D = 5 to <10 fold increase) | 20 to 40 |  | 20 to 40 |  |  | 
Oc1ccnc(-c2cc(-c3ccon3)n(Cc3ccccc3F)n2)n1 [Compound I-160, 2-(1-(2-fluorobenzyl)-5-(isoxazol-3-yl)-1H-pyrazol-3-yl)pyrimidin-4-ol] | C (C = 2 to <5 fold increase) | E (E = 10 to <20 fold increase) | 40 to 60 |  | 40 to 60 |  | < 20 | 10 to 20
Oc1nc(-c2cc(-c3ccon3)n(Cc3ccccc3F)n2)ncc1-c1ccncc1 [Compound I-163] | C (C = 2 to <5 fold increase) | E (E = 10 to <20 fold increase) | 40 to 60 |  | 40 to 60 |  |  | 
CC(C)(C)OC(=O)Nc1cnc(-c2cc(-c3ccon3)n(Cc3ccccc3F)n2)nc1O [Compound I-164] | C (C = 2 to <5 fold increase) | E (E = 10 to <20 fold increase) | 20 to 40 |  | 20 to 40 |  |  | 
O=[N+]([O-])c1cnc(-c2cc(-c3ccon3)n(Cc3ccccc3F)n2)nc1O [Compound I-170] | B (B = 1 to <2 fold increase) | B (B = 1 to <2 fold increase) | 0 to 10 |  |  |  |  | 0 to 10
Nc1nc(-c2cc(-c3ccon3)n(Cc3ccccc3F)n2)ncc1NC(=O)c1cccc(F)c1 [Compound I-171] | E (E = 10 to <20 fold increase) | E (E = 10 to <20 fold increase) | 100 to 120 |  | 80 to 100 |  | < 20 | 60 to 80
CC(C)(C)C(=O)Nc1cnc(-c2cc(-c3ncco3)n(Cc3ccccc3F)n2)nc1N [Compound I-191] | C (C = 2 to <5 fold increase) | E (E = 10 to <20 fold increase) | 40 to 60 |  | 80 to 100 |  | < 20 | 20 to 40

More lines, now with the values ahead:

HEK WC Assay (fold increase at 30 μM in the absence of SNP) [1] | HEK WC Assay (fold increase at 30 μM in the presence of 10 μM SNP) [2] | Emax [2, 3] [%] | Emax at 10 µM [2] [%] | Emax [2, 4] [%] | Emax at 30 µM [2] [%] | EC50 [2] [µM] | Emax [2, 5] [%] | Structure (SMILES)
C (C = 2 to <5 fold increase) | D (D = 5 to <10 fold increase) | 40 to 60 |  | 40 to 60 |  | 40 to 60 |  | CNc1cnc(-c2cc(-c3ccon3)n(Cc3ccccc3F)n2)nc1N [Compound I-143]
D (D = 5 to <10 fold increase) | G (G = 30 to <40 fold increase) | 80 to 100 |  | 100 to 120 |  | < 20 | 60 to 80 | Nc1nc(-c2cc(-c3ccon3)n(Cc3ccccc3F)n2)ncc1NC(=O)CCCCl [Compound I-167]
C (C = 2 to <5 fold increase) | D (D = 5 to <10 fold increase) | 40 to 60 |  | 10 to 20 |  | 100 to 300 | 0 to 10 | COc1cnc(-c2cc(-c3ccon3)n(Cc3ccccc3F)n2)nc1N [Compound I-173]
E (E = 10 to <20 fold increase) | E (E = 10 to <20 fold increase) | 80 to 100 |  | 100 to 120 |  | < 20 | 60 to 80 | Nc1nc(-c2cc(-c3ccon3)n(Cc3ccccc3F)n2)ncc1NC(=O)c1ccon1 [Compound I-175]
E (E = 10 to <20 fold increase) | E (E = 10 to <20 fold increase) | 60 to 80 |  | 80 to 100 |  | < 20 | 40 to 60 | Nc1nc(-c2cc(-c3ccon3)n(Cc3ccccc3F)n2)ncc1NC(=O)c1cccnc1 [Compound I-179]
D (D = 5 to <10 fold increase) | E (E = 10 to <20 fold increase) | 80 to 100 |  | 80 to 100 |  | < 20 | 40 to 60 | Nc1nc(-c2cc(-c3ccon3)n(Cc3ccccc3F)n2)ncc1NC(=O)c1cocn1 [Compound I-180]
E (E = 10 to <20 fold increase) | E (E = 10 to <20 fold increase) | 80 to 100 |  | > 120 |  | < 20 | 60 to 80 | Cc1ccc(C(=O)Nc2cnc(-c3cc(-c4ccon4)n(Cc4ccccc4F)n3)nc2N)cc1 [Compound I-181]
E (E = 10 to <20 fold increase) | E (E = 10 to <20 fold increase) | 80 to 100 |  | 80 to 100 |  | < 20 | 60 to 80 | Nc1nc(-c2cc(-c3ccon3)n(Cc3ccccc3F)n2)ncc1NC(=O)c1ccc(Cl)cc1 [Compound I-182]
E (E = 10 to <20 fold increase) | D (D = 5 to <10 fold increase) | 100 to 120 |  | 80 to 100 |  | < 20 | 60 to 80 | Cc1cccc(C(=O)Nc2cnc(-c3cc(-c4ccon4)n(Cc4ccccc4F)n3)nc2N)c1 [Compound I-183]
D (D = 5 to <10 fold increase) | F (F = 20 to <30 fold increase) | 60 to 80 |  | 60 to 80 |  | < 20 | 40 to 60 | Nc1nc(-c2cc(-c3ccon3)n(Cc3ccccc3F)n2)ncc1NC(=O)c1cccc(Cl)c1 [Compound I-187]
